Experimental data: ChEMBL document CHEMBL3507680, “University of Dundee, Gates Library screen for HepG2 cell viability”

Test: Human HepG2 cell viability assay in 384 well format
Format: toxicity, cell-based
Parameters: dose 125 nL, time 70.5 hour; cytotoxicity at 70.5 h: concentration not given beside the values
Conditions: HepG2 cells, read-out: Inhibition

COc1ncc(NCc2csc(-c3ccco3)n2)cc1C(N)=O
cytotoxicity at 70.5 h: -11%

COCC1CN(C(=O)Nc2cc(Cl)ccc2F)CCO1 (centres undefined)
cytotoxicity at 70.5 h: -8.58%

Cc1cccc(OCc2nnc(SCC3CCCN(C)C3)o2)c1 (centres undefined)
cytotoxicity at 70.5 h: -5.28%

CCC(C(=O)N1CCCN(CCN(C)C)CC1)N1CCCC1=O (centres undefined)
cytotoxicity at 70.5 h: 0.544%

Cc1csc(C2(NCC(O)COC(C)C)CCCC2)n1 (centres undefined)
cytotoxicity at 70.5 h: -11.4%

CC1CN(C)CCN1C(=O)NCCCn1ccnc1 (centres undefined)
cytotoxicity at 70.5 h: -1.11%

Cn1cc(C(C)(O)CNc2ccccn2)cn1 (centres undefined)
cytotoxicity at 70.5 h: 2.38%

COCC(=O)NCCC(=O)N1CCN(S(=O)(=O)c2ccc(Br)cc2)CC1
cytotoxicity at 70.5 h: 13.5%

COCC(=O)NCCC(=O)N1CCN(S(=O)(=O)c2cccc(Br)c2)CC1
cytotoxicity at 70.5 h: -2.7%

N#Cc1cc(F)c(NCc2ccc(F)cc2)c(F)c1
cytotoxicity at 70.5 h: 15.5%

CCN(CC)C(=O)CNS(=O)(=O)c1cc(Br)ccc1F
cytotoxicity at 70.5 h: -5.2%

Cc1c(C(C)NC(=O)Nc2ccccc2F)cnn1C (centres undefined)
cytotoxicity at 70.5 h: -5.46%

Cc1cnc(C(=O)N2CC[C@@H]3CN(c4ncccn4)CCO[C@@H]3C2)cn1
cytotoxicity at 70.5 h: -4.8%

O=C(c1ccco1)N1CCc2ncc(CN3CCOCC3)n2CC1
cytotoxicity at 70.5 h: 18.7%

COc1ccc(CNC(=O)c2nc3c(s2)CCN(C(C)=O)CC3)cc1
cytotoxicity at 70.5 h: -11.1%

Cc1ccccc1C(=O)N1CCC2(CC1)CC(c1cnn(C)c1)CO2 (centres undefined)
cytotoxicity at 70.5 h: -11.9%

Cn1cc(C2COC3(CCN(C(=O)c4cnccn4)CC3)C2)cn1 (centres undefined)
cytotoxicity at 70.5 h: -12.7%

Cn1cc(C2COC3(CCN(C(=O)c4cccc(O)c4)CC3)C2)cn1 (centres undefined)
cytotoxicity at 70.5 h: -11.7%

O=S(=O)(c1ccccc1)N1CCC2(CCCN2Cc2ccccc2Cl)C1 (centres undefined)
cytotoxicity at 70.5 h: 22.5%

Cc1ccc(CN2CCn3c(CNS(C)(=O)=O)nnc3C2)s1
cytotoxicity at 70.5 h: 22.6%

CS(=O)(=O)NCc1nnc2n1CCN(Cc1ccncc1)C2
cytotoxicity at 70.5 h: 20.1%

O=S(=O)(c1ccccc1)N1CCC2(CCCN2Cc2ccc(Cl)cc2)C1 (centres undefined)
cytotoxicity at 70.5 h: -7.11%

CS(=O)(=O)NCc1nnc2n1CCN(Cc1ccccn1)C2
cytotoxicity at 70.5 h: -9%

Cn1cc(C[C@H]2[C@H](O)CCN2Cc2ccc3c(c2)OCO3)cn1
cytotoxicity at 70.5 h: 6.92%

O=C(Nc1ccccc1)[C@H]1C[C@@H]2CN(Cc3cccnc3)C[C@H]1O2
cytotoxicity at 70.5 h: -5.98%

O=C(c1ccnnc1)N1CCN2C[C@H](OCc3ccccn3)C[C@H]2C1
cytotoxicity at 70.5 h: -4.04%

c1cncc(CN2CCCC3(COCCN(c4nccs4)C3)C2)c1 (centres undefined)
cytotoxicity at 70.5 h: -5.78%

COc1ccc(CN2C[C@H]3C[C@H](C(=O)Nc4cccnc4)[C@@H](C2)O3)cc1
cytotoxicity at 70.5 h: -3.51%

Cn1cc(CN2CC[C@@H](O)[C@@H]2Cc2ccccc2)cn1
cytotoxicity at 70.5 h: -7.36%

Cc1ccc(C(=O)N2CC[C@@]3(C[C@@H](NS(C)(=O)=O)CCO3)C2)s1
cytotoxicity at 70.5 h: 4.89%

Cc1nc(C(=O)N2CC[C@@]3(C[C@H](NS(C)(=O)=O)CCO3)C2)cs1
cytotoxicity at 70.5 h: -7.15%

CC(C)CN1C(=O)CO[C@@H]2CN(C(=O)C3CCOC3)C[C@H]21 (some centres undefined)
cytotoxicity at 70.5 h: 39.9%

COCCN1C(=O)[C@]2(CC[C@@H]3CN(S(=O)(=O)CC(C)C)C[C@@H]32)N=C1C
cytotoxicity at 70.5 h: 13.1%

CCCNC(=O)c1ncn2c1CN(CC(C)C)S(=O)(=O)c1ccccc1-2
cytotoxicity at 70.5 h: 13.4%

CS(=O)(=O)N[C@@H]1CCN(Cc2cccnc2)[C@H]1Cc1cccnc1
cytotoxicity at 70.5 h: 13.6%

CC1=N[C@@]2(CC[C@@H]3CN(S(=O)(=O)CC(C)C)C[C@@H]32)C(=O)N1C
cytotoxicity at 70.5 h: -10.5%

CCN1Cc2c(C(=O)NC)ncn2-c2ccccc2S1(=O)=O
cytotoxicity at 70.5 h: -6.74%

Cc1nnc([C@@H]2CC[C@@H]3[C@@H](CCN3S(=O)(=O)C3CC3)O2)o1
cytotoxicity at 70.5 h: -14%

CC(C)CN1Cc2c(C(=O)NC3CC3)ncn2-c2ccccc2S1(=O)=O
cytotoxicity at 70.5 h: -15.8%

Cc1nc(COC[C@H]2CC[C@H]3[C@H](CCN3C(N)=O)O2)cs1
cytotoxicity at 70.5 h: -1.77%

CC(C)CN1C(=O)CO[C@@H]2CN(C(=O)C3CCOCC3)C[C@H]21
cytotoxicity at 70.5 h: -4.41%

COc1ccc(CN2Cc3cn(C)nc3C(COCC3CC3)C2)cc1 (centres undefined)
cytotoxicity at 70.5 h: -4.4%

Cn1cc(CN2CCCC3(CCN(C(=O)c4ccoc4)C3)C2)cn1 (centres undefined)
cytotoxicity at 70.5 h: -11%

Cc1cccc(C(=O)N2CCn3c(CN4CCN(C)CC4)cnc3C2)n1
cytotoxicity at 70.5 h: -7.95%

COCC(=O)N1CCC2(CCCN(Cc3cnn(C)c3)C2)C1 (centres undefined)
cytotoxicity at 70.5 h: -3.28%

O=C(CC1CC1)N1Cc2nccn2CC(CN2CCCC2)C1 (centres undefined)
cytotoxicity at 70.5 h: 16.9%

COc1ccc(C2CC(=O)NCc3nc4ccccn4c32)cn1 (centres undefined)
cytotoxicity at 70.5 h: -1.02%

COCCc1noc(CN2CCN(c3ccc(OC)cc3)C(=O)C2C)n1 (centres undefined)
cytotoxicity at 70.5 h: -15.8%

O=C(c1ccc(CN2CCCCC2)cc1)N1Cc2cnn(CCO)c2C1
cytotoxicity at 70.5 h: 19.3%

COC(=O)CNC(=O)c1ccc(OC2CCN(S(C)(=O)=O)CC2)c(Cl)c1
cytotoxicity at 70.5 h: -4.88%

COc1ccc2c(c1)OCC(C(=O)NCc1nc3c(s1)CCCC3)C2 (centres undefined)
cytotoxicity at 70.5 h: -8.87%

CCn1cncc1Cn1cccc(C(F)(F)F)c1=O
cytotoxicity at 70.5 h: 2.51%

Cc1[nH]nc(CCC(=O)NCC2COc3ccccc3C2)c1C (centres undefined)
cytotoxicity at 70.5 h: -6.82%

CN(C)C(=O)COc1ccccc1CN1CCCC2(C1)CN(C)C(=O)O2 (centres undefined)
cytotoxicity at 70.5 h: -7.63%

CSCCCNC(=O)C(c1cccc(F)c1)N(C)C (centres undefined)
cytotoxicity at 70.5 h: -4.98%

Cc1cc(-c2nn(C)c(Cl)c2CN2CCN(C)C(C(=O)O)C2)no1 (centres undefined)
cytotoxicity at 70.5 h: -5.8%

N[C@@H](C(=O)N1CCN(c2ccccc2Cl)C(=O)C1)c1ccccc1
cytotoxicity at 70.5 h: -14.1%

CCc1nc(CN(C)C(=O)C2CC(=O)N(c3cccc(O)c3)C2)no1 (centres undefined)
cytotoxicity at 70.5 h: 3.57%

Cc1noc(CN2CC=C(c3cnn(C4CCS(=O)(=O)C4)c3)CC2)n1 (centres undefined)
cytotoxicity at 70.5 h: 27.9%

COC(=O)N1CCCCC1C(=O)N(C)Cc1cc(-c2cccnc2)no1 (centres undefined)
cytotoxicity at 70.5 h: -8.4%

CCc1nc(C)c(C(=O)N2CCNCC2C(=O)NCc2ccncc2)o1 (centres undefined)
cytotoxicity at 70.5 h: -5.31%

CCn1nc(C)c(CCNC(=O)C2CCCN(C(C)=O)C2)c1C (centres undefined)
cytotoxicity at 70.5 h: -8.81%

c1ccc(C2CN(c3ncnc4[nH]cnc34)CCO2)cc1 (centres undefined)
cytotoxicity at 70.5 h: -8.36%

CCC[C@H]1CN(S(=O)(=O)c2cc(C)ccc2C)C[C@@H]1N
cytotoxicity at 70.5 h: -0.438%

O=C(c1ccc(-c2ccoc2)nc1)N1CCCN(C2CCCCC2)CC1
cytotoxicity at 70.5 h: -12.9%

O=C(NCc1cccnc1N1CCc2ccccc2C1)c1cc(=O)[nH][nH]1
cytotoxicity at 70.5 h: -3.06%

CS(=O)(=O)N1C[C@@H]2CC[C@H](C1)N(C(=O)Cn1nc3ccccc3n1)C2
cytotoxicity at 70.5 h: 20.9%

CCCN(Cc1nc(-c2ccoc2)oc1C)CC1CCCO1 (centres undefined)
cytotoxicity at 70.5 h: -6%

Cc1occc1C(=O)N1CCC2(CC1)CC(OCc1ccccn1)CO2 (centres undefined)
cytotoxicity at 70.5 h: 11.9%

Cc1nnc(N2CC[C@H]3C[C@@H](C(=O)N4CCCC4)O[C@H]3C2)s1
cytotoxicity at 70.5 h: 12.6%

Cc1cc(C(=O)N2CC[C@]3(C[C@@H](OCc4ccccn4)CO3)C2)c(C)o1
cytotoxicity at 70.5 h: 17.1%

Cc1cc(C(=O)N2CCn3cc(CN4CCOCC4)nc3C2)no1
cytotoxicity at 70.5 h: -7.09%

O=C(NC1CC1)N1CCc2ncc(CN3CCOCC3)n2CC1
cytotoxicity at 70.5 h: -16%

O=C(C1CCOCC1)N1CCc2ncc(CN3CCOCC3)n2CC1
cytotoxicity at 70.5 h: -11.5%

Cc1nnc(N2CC[C@H]3C[C@H](C(=O)N(C)C)O[C@@H]3C2)s1
cytotoxicity at 70.5 h: -7.89%

CNC(=O)[C@H]1C[C@@H]2CCN(c3nnc(C)s3)C[C@@H]2O1
cytotoxicity at 70.5 h: -8.39%

Cc1occc1C(=O)N1CCC[C@]2(C[C@@H](OCc3ccccn3)CO2)C1
cytotoxicity at 70.5 h: -9.42%

CS(=O)(=O)NCc1nnc2n1CCN(Cc1cccs1)CC2
cytotoxicity at 70.5 h: -4.32%

O=C(NC1CCCCC1)N1CCc2onc(COc3cccnc3)c2C1
cytotoxicity at 70.5 h: -6.55%

O=C(c1cccs1)N1CCCC2(COCCN(c3cccnc3)C2)C1 (centres undefined)
cytotoxicity at 70.5 h: -6.3%

O=C(c1ccc[nH]1)N1CCc2onc(COc3cccnc3)c2C1
cytotoxicity at 70.5 h: -4.03%

Cc1ccccc1CN1C[C@@H](C(=O)N2CCCCO2)C[C@H]2OCC[C@H]21
cytotoxicity at 70.5 h: -7.46%

CS(=O)(=O)N[C@H]1CCO[C@]2(CCN(C(=O)c3ccccn3)C2)C1
cytotoxicity at 70.5 h: -3.91%

Cc1ccc(C(=O)N2C[C@@H]3OCCN(C)[C@@H]3C2)cn1
cytotoxicity at 70.5 h: -2.77%

CNC(=O)[C@H]1C[C@@H]2CCN(Cc3nccs3)C[C@H]2O1
cytotoxicity at 70.5 h: -6.34%

Fc1cccc(CNCC2OCCc3cn(CC4CCOCC4)nc32)c1 (centres undefined)
cytotoxicity at 70.5 h: -5.44%

O=C1CO[C@@H]2CN(CC3CC3)C[C@H]2N1Cc1cccc(F)c1
cytotoxicity at 70.5 h: 14.4%

COc1ccc(CN2CCCn3cnc(COC(C)C)c3C2)cc1
cytotoxicity at 70.5 h: 23.2%

CN1CC(=O)N(c2ccccc2)CC12CCN(S(C)(=O)=O)C2 (centres undefined)
cytotoxicity at 70.5 h: 20.4%

Cc1nc(CN2C[C@@H]3CN(C(=O)c4ccco4)C[C@@H]3C2=O)cs1
cytotoxicity at 70.5 h: -3.99%

O=C(NCc1ccccn1)[C@H]1COC[C@H]2CN(C3CCCC3)C[C@H]21
cytotoxicity at 70.5 h: 40.2%

CN(C)C(=O)[C@H]1C[C@H]2OCC[C@H]2N(Cc2ccc3ccccc3n2)C1
cytotoxicity at 70.5 h: 17.2%

c1cnc(N2CCOCC3(CCCN(Cc4cccs4)C3)C2)nc1 (centres undefined)
cytotoxicity at 70.5 h: 19.9%

c1cncc(N2CCOCC3(CN(Cc4cccs4)CCO3)C2)c1 (centres undefined)
cytotoxicity at 70.5 h: 19.2%

Cn1cc(CN2CCCC3(COCCN(c4cccnc4)C3)C2)cn1 (centres undefined)
cytotoxicity at 70.5 h: -6.27%

CC(C)CCN1C[C@H]2C[C@H](C(=O)Nc3cccnc3)[C@@H](C1)O2
cytotoxicity at 70.5 h: -6.02%

O=C([C@H]1C[C@H]2OCC[C@H]2N(Cc2ccccc2F)C1)N1CCCCO1
cytotoxicity at 70.5 h: -7.79%

O=S(=O)(c1ccccc1)N1CCC2(CCCN2Cc2cccnc2)C1 (centres undefined)
cytotoxicity at 70.5 h: 10.9%

Cc1noc(C)c1CN1Cc2cn(C)nc2C(COCC2CC2)C1 (centres undefined)
cytotoxicity at 70.5 h: 14.4%

CS(=O)(=O)N[C@@H]1CCN(Cc2cccnc2)[C@H]1Cc1ccccc1
cytotoxicity at 70.5 h: -11.7%

O=C(Nc1cccnc1)[C@H]1C[C@@H]2CCN(Cc3nccs3)C[C@@H]2O1
cytotoxicity at 70.5 h: -15.1%

Cc1ncccc1NC(=O)[C@@H]1C[C@@H]2CCN(Cc3cccs3)C[C@H]2O1
cytotoxicity at 70.5 h: -12.3%

CN1CCN(C2COC3(CCN(Cc4ccc(F)cc4)CC3)C2)CC1 (centres undefined)
cytotoxicity at 70.5 h: -11.8%

Cn1cc(CN2CCCC3(CCN(C(=O)c4ccccn4)C3)C2)cn1 (centres undefined)
cytotoxicity at 70.5 h: -12%
